Values of other authors, collected in US20220105150A1, “AMPHIPATHIC ALPHA-HELICAL ANTIMICROBIAL PEPTIDES TREAT INFECTIONS BY GRAM-NEGATIVE PATHOGENS” (priority 2019, published 2022).

Tests used:
[1] = test system: A. baumannii strains from JMI Laboratories; conditions: 20 A. baumannii isolates from JMI Laboratories; cited from earlier work
[2] = test system: Acinetobacter baumannii strains resistant to Polymyxin B and Colistin; conditions: results provided by MERCK, cited from earlier work; for MICGM: geometric mean over seven strains; for MIC MB9941: strain MB9941; for MIC MB9949: strain MB9949; for MIC MB9951: strain MB9951; for MIC MB9952: strain MB9952; for MIC MB9953: strain MB9953; for MIC MB9955: strain MB9955; for MIC MB9963: strain MB9963

C[C@@H](O)[C@H]1C(=O)N2C(C(=O)O)=C(S[C@@H]3CN[C@H](CNS(N)(=O)=O)C3)[C@H](C)[C@H]12 [Doripenem]
number of resistant isolates out of the number of isolates screened [1]: 17/20

C[C@@H](O)[C@H]1C(=O)N2C(C(=O)O)=C(S[C@@H]3CN[C@H](C(=O)N(C)C)C3)[C@H](C)[C@H]12 [Meropenem]
number of resistant isolates out of the number of isolates screened [1]: 17/20

NC[C@H]1O[C@H](O[C@H]2[C@H](O)[C@@H](O[C@H]3O[C@H](CO)[C@@H](O)[C@H](N)[C@H]3O)[C@H](N)C[C@@H]2N)[C@H](N)C[C@@H]1O [Tobramycin]
number of resistant isolates out of the number of isolates screened [1]: 18/20

Ampicillin-sulbactam
number of resistant isolates out of the number of isolates screened [1]: 17/20

Ceftazidime-avibactam
number of resistant isolates out of the number of isolates screened [1]: 17/20

Colistin
MICGM [2]: >28 µM
MIC MB9941 [2]: >28 µM
MIC MB9949 [2]: >28 µM
MIC MB9951 [2]: >28 µM
MIC MB9952 [2]: >28 µM
MIC MB9953 [2]: >28 µM
MIC MB9955 [2]: >28 µM
MIC MB9963 [2]: >28 µM
number of resistant isolates out of the number of isolates screened [1]: 10/20

Gentamicin
number of resistant isolates out of the number of isolates screened [1]: 18/20

Piperacillin-tazobactam
number of resistant isolates out of the number of isolates screened [1]: 19/20

Polymyxin B
MICGM [2]: >25 µM
MIC MB9941 [2]: >25 µM
MIC MB9949 [2]: >25 µM
MIC MB9951 [2]: >25 µM
MIC MB9952 [2]: >25 µM
MIC MB9953 [2]: >25 µM
MIC MB9955 [2]: >25 µM
MIC MB9963 [2]: >25 µM
